Assay [1] relates to JAK1-dependent STAT6 phosphorylation downstream of IL-13 stimulation in BEAS-2B human bronchial epithelial cells. As to the kind of experiment: JAK1 pathway assay in BEAS-2B cells (IL-13-pSTAT6, MSD). Format: cell-based. The settings on record: Homo sapiens, BEAS-2B, BEAS-2B cells, IL-13 stimulation; read-out: IL-13 p-STAT6 BEAS-2B IC50. As for the experimental part: JAK1 Pathway Assay in Cell Lines was carried out as follows:
Inhibitor potency (EC50) was determined in cell-based assays designed to measure JAK1 dependent STAT phosphorylation.
In one assay approach, TF-1 human erythroleukemia cells obtained from the American Type Culture Collection (ATCC; Manassas, Va.) were used to measure JAK1-dependent STAT6 phosphorylation downstream of IL-13 stimulation. Prior to use in the assays, TF-1 cells were starved of GM-CSF overnight in OptiMEM medium (Life Technologies, Grand Island, N.Y.) supplemented with 0.5% charcoal/dextran stripped fetal bovine serum (FBS), 0.1 mM non-essential amino acids (NEAA), and 1 mM sodium pyruvate. The assays were run in 384-well plates in serum-free OptiMEM medium using 300,000 cells per well. In a second assay approach, BEAS-2B human bronchial epithelial cells obtained from ATCC were plated at 100,000 cells per well of a 96-well plate one day prior to the experiment. The BEAS-2B assay was run in complete growth medium (bronchial epithelial basal medium plus bulletkit; Lonza; Basel, Switzerland).
Test compounds were serially diluted 1:2 in DMSO and then diluted 1:50 in medium just before use. Diluted compounds were added to the cells, for a final DMSO concentration of 0.2%, and incubated for 30 min (for the TF-1 assay) or 1 hr (for the BEAS-2B assay) at 37° C. Then, cells were stimulated with human recombinant cytokine at their respective EC90 concentrations, as previously determined for each individual lot. Cells were stimulated with IL-13 (R&D Systems, Minneapolis, Minn.) for 15 min at 37° C. The TF-1 cell reactions were stopped by the direct addition of 10× lysis buffer (Cell Signaling Technologies, Danvers, Mass.), whereas the BEAS-2B cell incubations were halted by the removal of medium and addition of 1× lysis buffer. The resultant samples were frozen in the plates at −80° C. Compound mediated inhibition of STATE phosphorylation was measured in the cell lysates using MesoScale Discovery (MSD) technology (Gaithersburg, Md.).

The target of assay [2] is isolated recombinant JAK2 kinase domain (Homo sapiens (Human), UniProt O60674). As to the kind of experiment: JAK2 enzyme assay (Caliper LabChip, Ki). Format: biochemical. The gist of the method:
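Caliper LabChip readout of phosphorylated product as a fraction of total substrate, a fluorescently N-terminally labelled JAK3-derived peptide. Isolated human JAK kinase domains were incubated 30 min at 22 °C before EDTA quench (50 mM final).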

Assay [3] concerns the target isolated recombinant JAK1 kinase domain (Homo sapiens (Human), UniProt P23458). As to the kind of experiment: JAK1 enzyme assay (Caliper LabChip, Ki). The settings on record: read-out: JAK1 Ki. The format is biochemical. The method in brief: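 Ki derived via Morrison tight-binding model, ATP-competitive correction applied. Read-out: product/total ratio of a 5-carboxyfluorescein-tagged JAK3 peptide separated on Caliper LabChip after phosphorylation by isolated human JAK1 kinase domain (22 °C, 30 min; EDTA quench, 50 mM final).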

From patent US11731943B2, “Therapeutic compounds, compositions and methods of use thereof” (priority 2016, dated 2023) come the findings set out here.

pIC50, pKi: −log10 of the molar value.

isolated recombinant JAK2 kinase domain, sequence (O60674 849-1124): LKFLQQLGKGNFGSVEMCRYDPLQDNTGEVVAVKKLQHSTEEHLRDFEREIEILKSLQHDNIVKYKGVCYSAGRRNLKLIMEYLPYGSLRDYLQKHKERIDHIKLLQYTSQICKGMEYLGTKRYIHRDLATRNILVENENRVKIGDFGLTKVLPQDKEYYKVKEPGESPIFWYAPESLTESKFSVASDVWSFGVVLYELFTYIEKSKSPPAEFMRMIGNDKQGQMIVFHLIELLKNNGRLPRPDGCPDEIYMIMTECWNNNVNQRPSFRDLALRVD
isolated recombinant JAK1 kinase domain, sequence (P23458 875-1153): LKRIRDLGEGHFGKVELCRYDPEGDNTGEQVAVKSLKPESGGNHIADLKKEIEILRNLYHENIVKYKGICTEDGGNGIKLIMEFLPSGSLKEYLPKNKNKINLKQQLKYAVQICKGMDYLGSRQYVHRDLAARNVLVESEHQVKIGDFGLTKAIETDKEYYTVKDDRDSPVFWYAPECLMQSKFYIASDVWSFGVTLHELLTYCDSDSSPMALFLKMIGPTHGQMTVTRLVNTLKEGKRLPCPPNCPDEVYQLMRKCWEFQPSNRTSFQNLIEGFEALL

With `C#Cc1ccc(NC2CCC(CC#N)(n3cc(C(N)=O)c(NC(=O)C4CC4)n3)CC2)cc1` (stereo not drawn) [Example 279, 1-[1-(cyanomethyl)-4-(4-ethynylanilino)cyclohexyl]-3-(cyclopropanecarbonylamino) pyrazole-4-carboxamide], in assay [1], the pIC50 was 7.04. In addition, the values for the pKi in assay [2] and in assay [3] were 7.85 and 8.92, respectively.

As to `C#Cc1ccc(CN2CCC(CC#N)(n3cc(C(N)=O)c(NC(=O)OC)n3)C(F)C2)c(F)c1` (stereo not drawn) [Example 297, methyl N-[4-carbamoyl-1-[4-(cyanomethyl)-1-[(4-ethynyl-2-fluoro-phenyl)methyl]-3-fluoro-4-piperidyl]pyrazol-3-yl]carbamate], the pIC50 in assay [1] is 7.21. Also, the pKi was 9.12 in assay [2] and 9.28 in assay [3].

`CC[C@]1(n2cc(C(N)=O)c(Nc3ccc(S(C)(=O)=O)cc3)n2)CC[C@H](N2CC(C(F)(F)F)C2)CC1` [Example 302, 1-((1S,4S)-1-ethyl-4-(3-(trifluoromethyl)azetidin-1-yl)cyclohexyl)-3-((4-(methylsulfonyl)phenyl)amino)-1H-pyrazole-4-carboxamide]: the pIC50 in assay [1] is 7.37. Also, the results for the pKi in assay [2] and in assay [3] were 8.70 and 9.03, respectively.

In the case of `CC1(Oc2ccc(C(F)(F)F)cc2)CN(C2CCC(CC#N)(n3cc(C(N)=O)c(NC(=O)C4CC4)n3)CC2)C1` (stereo not drawn) [Example 295, 1-[1-(cyanomethyl)-4-[3-methyl-3-[4-(trifluoromethyl)phenoxy]azetidin-1-yl]cyclohexyl]-3-(cyclopropanecarbonylamino) pyrazole-4-carboxamide], in assay [1], the pIC50 is 7.07. For the same compound, the pKi is 8.54 in assay [2] and 8.70 in assay [3].

Turning to `N#CCC1(n2cc(C(N)=O)c(NC(=O)C3CC3)n2)CCN(Cc2ccc(-c3cccc(F)c3)c(O)c2)CC1` [Example 139, 1-[4-(cyanomethyl)-1-[[4-(3-fluorophenyl)-3-hydroxy-phenyl]methyl]-4-piperidyl]-3-(cyclopropanecarbonylamino) pyrazole-4-carboxamide], the pIC50 in assay [1] is 6.98. Besides, the negative-log Ki (pKi) in assay [2] is 9.00; in assay [3], 9.40.

For the compound `COC(=O)Nc1nn(C2(CC#N)CCN(Cc3ccc(C4=CCCCC4)c(O)c3)CC2F)cc1C(N)=O` (stereo not drawn) [Example 258, methyl N-[4-carbamoyl-1-[4-(cyanomethyl)-1-[[4-(cyclohexen-1-yl)-3-hydroxy-phenyl]methyl]-3-fluoro-4-piperidyl]pyrazol-3-yl]carbamate], in assay [1], the pIC50 is 7.47. Moreover, the negative-log Ki (pKi) in assay [2] was 9.54; in assay [3], 9.47.

As to `N#CCC1(n2cc(C(N)=O)c(NC(=O)C3CC3)n2)CCN(Cc2ccc(-c3csc(Cl)c3)nc2)CC1` [Example 16, 1-(1-((6-(5-Chlorothiophen-3-yl)pyridin-3-yl)methyl)-4-(cyanomethyl)piperidin-4-yl)-3-(cyclopropanecarboxamido)-1H-pyrazole-4-carboxamide], the pIC50 in assay [1] is 7.07. Further, the values for the pKi in assay [2] and in assay [3] were 8.62 and 9.30, respectively.

Turning to `N#CCC1(n2cc(C(N)=O)c(NC(=O)C3CC3)n2)CCN(C(=O)OCC(F)(F)F)CC1` [Example 167, 2,2,2-trifluoroethyl 4-[4-carbamoyl-3-(cyclopropanecarbonylamino)pyrazol-1-yl]-4-(cyanomethyl)piperidine-1-carboxylate], the pIC50 in assay [1] was 6.08. For the same compound, the negative-log Ki (pKi) was 7.54 in assay [2] and 8.64 in assay [3].

As to `COC(=O)Nc1nn(C2(CC#N)CCN(Cc3ccc(-c4ccoc4)c(O)c3)CC2F)cc1C(N)=O` (stereo not drawn) [Example 244, methyl N-[4-carbamoyl-1-[4-(cyanomethyl)-3-fluoro-1-[[4-(3-furyl)-3-hydroxy-phenyl]methyl]-4-piperidyl]pyrazol-3-yl]carbamate], the pIC50 in assay [1] is 7.17. Moreover, the figures for the pKi in assay [2] and in assay [3] were 9.43 and 9.70, respectively.
